Assay results: patent US12528797B2, “Heterocyclic compounds for medical treatment” (C4 Therapeutics, Inc., priority 2019, dated 2026)

The molecules below were run against hCereblon(M1-L442)_hDDB1(M1-H1140) (Homo sapiens (Human), UniProt Q96SW2) (assay: Fluorescence direct binding (tryptophan fluorescence titration)). Conditions: 20° C., excitation 280 nm, emission 340 nm, assay buffer 50 mM Hepes 7.4 200 mM NaCl; read-out: Fluorescence h-Cereblon_DDB1 Mean Kd_EQ.
hCereblon(M1-L442)_hDDB1(M1-H1140), sequence (Q96SW2 whole entry): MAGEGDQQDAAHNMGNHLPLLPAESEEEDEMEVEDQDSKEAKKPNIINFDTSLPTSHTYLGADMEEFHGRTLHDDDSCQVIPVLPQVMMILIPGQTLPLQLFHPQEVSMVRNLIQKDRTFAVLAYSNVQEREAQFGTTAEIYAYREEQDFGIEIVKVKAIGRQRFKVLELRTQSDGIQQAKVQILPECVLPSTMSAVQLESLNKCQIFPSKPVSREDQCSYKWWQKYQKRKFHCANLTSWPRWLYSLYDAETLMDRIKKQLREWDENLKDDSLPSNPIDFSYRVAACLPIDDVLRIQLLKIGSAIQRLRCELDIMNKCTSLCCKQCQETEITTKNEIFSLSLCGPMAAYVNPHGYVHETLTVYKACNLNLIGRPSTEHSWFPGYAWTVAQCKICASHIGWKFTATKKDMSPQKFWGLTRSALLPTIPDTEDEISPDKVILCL
hCereblon(M1-L442)_hDDB1(M1-H1140), sequence (Q16531 whole entry partner): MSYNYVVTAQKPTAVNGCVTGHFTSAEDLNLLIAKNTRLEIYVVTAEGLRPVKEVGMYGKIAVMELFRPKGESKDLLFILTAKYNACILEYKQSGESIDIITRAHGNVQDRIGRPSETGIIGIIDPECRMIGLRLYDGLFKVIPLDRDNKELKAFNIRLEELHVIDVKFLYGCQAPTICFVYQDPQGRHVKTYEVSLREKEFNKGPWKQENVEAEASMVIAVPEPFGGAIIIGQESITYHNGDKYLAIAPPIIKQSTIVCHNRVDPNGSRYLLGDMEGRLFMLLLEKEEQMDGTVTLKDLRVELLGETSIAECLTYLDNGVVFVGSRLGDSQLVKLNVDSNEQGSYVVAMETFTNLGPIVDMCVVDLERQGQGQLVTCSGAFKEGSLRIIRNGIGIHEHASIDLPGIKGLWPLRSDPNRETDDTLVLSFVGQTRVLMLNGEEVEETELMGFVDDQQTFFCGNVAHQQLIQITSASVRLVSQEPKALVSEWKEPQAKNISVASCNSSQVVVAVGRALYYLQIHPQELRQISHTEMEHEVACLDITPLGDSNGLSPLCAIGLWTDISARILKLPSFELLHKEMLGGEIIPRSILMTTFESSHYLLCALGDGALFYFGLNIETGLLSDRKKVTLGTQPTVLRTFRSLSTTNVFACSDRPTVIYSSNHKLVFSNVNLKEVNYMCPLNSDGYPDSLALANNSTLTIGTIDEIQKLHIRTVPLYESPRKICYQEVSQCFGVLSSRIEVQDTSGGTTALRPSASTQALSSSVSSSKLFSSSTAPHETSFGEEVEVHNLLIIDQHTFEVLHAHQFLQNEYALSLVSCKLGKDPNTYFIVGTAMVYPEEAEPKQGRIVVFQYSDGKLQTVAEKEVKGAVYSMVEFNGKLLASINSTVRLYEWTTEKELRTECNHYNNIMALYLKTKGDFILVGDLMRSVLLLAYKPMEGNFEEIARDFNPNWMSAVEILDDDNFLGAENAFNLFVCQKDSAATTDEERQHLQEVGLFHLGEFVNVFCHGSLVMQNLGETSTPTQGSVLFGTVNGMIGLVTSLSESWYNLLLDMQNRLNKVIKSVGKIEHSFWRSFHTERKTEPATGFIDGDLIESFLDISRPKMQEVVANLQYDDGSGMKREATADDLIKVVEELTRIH
Procedure: Fluorescence Direct Binding Protocol
Determination of the affinities of compounds to protein containing one or more tryptophan is measurable by monitoring the fluorescence emission in direct mode. The measurements depending on the protein available amounts are performed either manually in a cuvette on ISS-PC1 photon counting spectrofluorometer or automatically in well plates on a fluorescence plate reader device. Fluorescence titrations are performed at 20° C. in the chosen binding assay buffer by using a defined constant protein concentration against ligand concentration variations. Small aliquots of known ligand concentration solubilized in DMSO were added and the fluorescence, excited at 280 nm, was recorded at 340 nm. The fluorescence intensity was corrected for protein dilution and for the filter effect (Birdsall et al.). The corrected fluorescence intensity was plotted against the ligand concentration and fitted using a four-parameter sigmoidal function, from which the equilibrium dissociation constant Kd was computed using the law of mass action assuming a 1:1 protein-ligand complex (Eftink, 1997).
• 1) Optimization of measurement parameters to minimize protein consumption and to minimize the dilution effect and the DMSO content • 2) Titration measurements of the protein against ligand by at least 12 titration steps to obtain a good s-curve fit • 3) Repeat the same titration measurements with the ligand alone to enable correction • 4) Check the stability of the protein once by titration against DMSO alone • 5) Determination of the molar extinction coefficients of the ligand at 280 and 340 nm with help of an UV-spectrophotometer • 6) Use Excel template for the correction of the measured raw data Use GraphPad Prism software for the quadratic binding fit and the KD evaluation.
For `O=C(Nc1ccc2[nH]c(=O)oc2c1)c1ccccc1` [Example 1, N-(2-Oxo-3H-1,3-benzoxazol-6-yl)benzamide], the Kd was 4 nM.
`O=C1Cc2cc(NC(=O)c3ccco3)ccc2N1` [Example 2, N-(2-Oxoindolin-5-yl)furan-2-carboxamide] showed a Kd of 7 nM.
For `Cc1ccccc1OCC(=O)Nc1ccc2[nH]c(=O)sc2c1` [Example 3, 2-(2-Methylphenoxy)-N-(2-oxo-3H-1,3-benzothiazol-6-yl)acetamide], the Kd was 14 nM.
`CNC(=O)c1ccc2c(c1)nc(C(C)C)n2-c1ccc2c(c1)NC(=O)C2` [Example 4, 2-Isopropyl-N-methyl-1-(2-oxoindolin-6-yl)benzimidazole-5-carboxamide] was tested, and the Kd was 2 nM.
In the case of `CNC(=O)c1ccc2c(c1)nc(C(C)C)n2-c1ccc2c(c1)CC(=O)N2` [Example 5, 2-Isopropyl-N-methyl-1-(2-oxoindolin-5-yl)benzimidazole-5-carboxamide], the Kd is reported as 3 nM.
`Nc1ccccc1Nc1ccc2[nH]c(=O)sc2c1` [Example 6, 6-(2-Aminoanilino)-3H-1,3-benzothiazol-2-one] gave a Kd of under 1 nM.
For `CC(C)c1nc2ccccc2n1-c1ccc2[nH]c(=O)sc2c1` [Example 7, 6-(2-Isopropylbenzimidazol-1-yl)-3H-1,3-benzothiazol-2-one], the Kd was 19 nM.
Molecule `Nc1ccccc1Nc1ccc2[nH]c(=O)oc2c1` [Example 8, 6-(2-Aminoanilino)-3H-1,3-benzoxazol-2-one] has a Kd of 8 nM.
Molecule `CC(C)c1nc2ccccc2n1-c1ccc2[nH]c(=O)oc2c1` [Example 9, 6-(2-Isopropylbenzimidazol-1-yl)-3H-1,3-benzoxazol-2-one] has a Kd of 108 nM.
In the case of `O=C1Cc2cc(C(=O)Nc3ccccc3)ccc2N1` [Example 10, 2-Oxo-N-phenylindoline-5-carboxamide], the Kd is reported as 91 nM.
`O=C(Nc1ccccc1)c1ccc2[nH]c(=O)oc2c1` [Example 11, 2-Oxo-N-phenyl-3H-1,3-benzoxazole-6-carboxamide] gave a Kd of 54 nM.
`CC(=O)N1CCC(NC(=O)c2ccc3[nH]c(=O)oc3c2)CC1` [Example 12, N-(1-Acetyl-4-piperidyl)-2-oxo-3H-1,3-benzoxazole-6-carboxamide] gave a Kd of 6 nM.
Molecule `O=C(c1ccc2[nH]c(=O)oc2c1)N1CCc2ccccc21` [Example 13, 6-(Indoline-1-carbonyl)-3H-1,3-benzoxazol-2-one] has a Kd of 4 nM.
`O=C(c1ccc2[nH]c(=O)oc2c1)N1CCc2cccnc21` [Example 14, 6-(2,3-Dihydropyrrolo[2,3-b]pyridine-1-carbonyl)-3H-1,3-benzoxazol-2-one] gave a Kd of 24 nM.
`O=C(Nc1ccccc1)c1ccc2[nH]c(=O)sc2c1` [Example 15, 2-Oxo-N-phenyl-3H-1,3-benzothiazole-6-carboxamide] gave a Kd of 79 nM.
In the case of `O=C(c1ccc2[nH]c(=O)sc2c1)N1CCc2ccccc21` [Example 16, 6-(Indoline-1-carbonyl)-3H-1,3-benzothiazol-2-one], the Kd is reported as 28 nM.
`O=C1Cc2cc(C(=O)N3CCc4ccccc43)ccc2N1` [Example 17, 5-(Indoline-1-carbonyl)indolin-2-one] was tested, and the Kd was 15 nM.
In the case of `O=C(Nc1ccccc1)c1cnc2[nH]c(=O)oc2c1` [Example 18, 2-Oxo-N-phenyl-3H-oxazolo[4,5-b]pyridine-6-carboxamide], the Kd is reported as 24 nM.
`CC(=O)N1CCC(NC(=O)c2cnc3[nH]c(=O)oc3c2)CC1` [Example 19, N-(1-Acetyl-4-piperidyl)-2-oxo-3H-oxazolo[4,5-b]pyridine-6-carboxamide] gave a Kd of 7 nM.
`O=C1Cc2cc(C(=O)N3CCc4ccccc43)cnc2N1` [Example 20, 5-(Indoline-1-carbonyl)-1,3-dihydropyrrolo[2,3-b]pyridin-2-one] gave a Kd of 13 nM.
In the case of `CC(C)c1nc2ccccc2n1-c1ccc2c(c1)C(F)(F)C(=O)N2` [Example 21, 3,3-Difluoro-5-(2-isopropylbenzimidazol-1-yl)indolin-2-one], the Kd is reported as under 1 nM.
`O=C(c1ccc2[nH]c(=O)oc2c1)N1Cc2cccc(O)c2C1` [Example 22, 6-(4-Hydroxyisoindoline-2-carbonyl)-3H-1,3-benzoxazol-2-one] was tested, and the Kd was 2 nM.
Work on `O=C(c1ccc2[nH]c(=O)oc2c1)N1Cc2cccc([N+](=O)[O-])c2C1` [Example 23, 6-(4-Nitroisoindoline-2-carbonyl)-3H-1,3-benzoxazol-2-one] yielded a Kd of 14 nM.
`O=C(Nc1ccc2c(c1)C(F)(F)C(=O)N2)C1CCCc2ccccc21` (stereo not drawn) [Example 24, N-(3,3-difluoro-2-oxo-indolin-5-yl)tetralin-1-carboxamide] was tested, and the Kd was 28 nM.
`O=C(Nc1ccc2c(c1)C(F)(F)C(=O)N2)c1coc2ccccc12` [Example 25, N-(3,3-difluoro-2-oxo-indolin-5-yl)benzofuran-3-carboxamide] showed a Kd of 52 nM.
Molecule `CNC(=O)c1ccc2c(c1)nc(C(C)C)n2-c1cnc2c(c1)CC(=O)N2` [Example 26, 2-Isopropyl-N-methyl-1-(2-oxo-1,3-dihydropyrrolo[2,3-b]pyridin-5-yl)benzimidazole-5-carboxamide] has a Kd of 7 nM.
For `CC(C)c1nc2ccccc2n1-c1cnc2c(c1)CC(=O)N2` [Example 27, 5-(2-Isopropylbenzimidazol-1-yl)-1,3-dihydropyrrolo[2,3-b]pyridin-2-one], the Kd was under 1 nM.
